Assay results reported in patent US4767781A, “Derivatives of beta-amino-gamma-trimethylammonio-butyrate and their production and use” (Takeda Chemical Industries, Ltd., priority 1981, dated 1988).
Counter-ions that a name gives are not always drawn.

Key:
[1] = test system: ketone bodies (β-hydroxybutyrate) in blood; assay: Antiketogenic activity in fasted rats (blood β-hydroxybutyrate); type: in vivo, rat (male Sprague-Dawley); settings: % of control rats; 50 mg/kg oral, 4 hours after dosing, 20 h fasted, n = 5
Experimental: Antiketogenic activities of derivatives of β-amino-γ-trimethylammonio-butyrate were measured as follows: […] Blood […] 4 hours later from a vein of tail and ketone bodies were measured as β-hydroxybutyrate according to the modified method of Williamson [D. H. Williamson et al.; Methods of Enzymatic Analysis, P454 (1968), Academic Press, New York]. The amount of ketone bodies was shown as a relative amount of β-hydroxybutyrate (percentage) to the amount of p-hydroxybutyrate in blood of control rats.

[2] = test system: fatty acid degradation which depends on carnitine added (rat liver homogenates); assay: Inhibition of carnitine-dependent fatty acid degradation (14CO2 from 1-14C palmitic acid) in rat liver homogenate; type: biochemical, rat (SD, male)
Experimental: Then, the fatty acid degradation inhibiting activity of the compound (I), (III), (IV) was determined in accordance with the method described in P.75 "Metabolism of Lipids" which is Vol. 9 of "Seikagaku Jikken Koza" (Text of Biochemical Experiments)compiled by Tokyo Kagaku Dojin, published 1975, using rat liver homogenates. Thus, an SD strain rat (6 weeks of age, male) was fasted for one day and, then, bled to death. The liver was immediately excised and homogenized with 10 times (w/v) of a 0.25 M sucrose solution containing a 5 mM Tris-HCl buffer (pH 7.4), 0.1 mM EDTA and 1 mg/ml bovine serum albumin using a Teflon rod homogenizer. The homogenate was centrifuged at 820 ×g for 10 minutes and the supernatant was further centrifuged at 8,000 ×g for 10 minutes. The resultant pellets were suspended in the same sucrose solution as above to a concentration of 0.2 g wet liver weight/0.5 ml solution and 0.5 ml of the suspension was used as the enzyme solution in the reacrion. […] The inhibitory activity is shown as percentage of inhibitory activity to degradation activity of fatty acid facilitated by the addition of carnitine to that of not added of the compound.

[3] = Solubilities; type: physicochemical
[4] = Stability in aqueous solution; type: physicochemical; settings: pH 3 to 9, 100° C., 10 minutes
[5] = concentration of drug 2 mM, R2 = --OH
[6] = in petroleum ether, hexane, diethyl ether, benzene, ethyl acetate, chloroform
[7] = in pyridine, acetone, dimethyl sulfoxide, dimethylformamide

SMILES | relative amount of β-hydroxybutylate (%) [1] [%] | Inhibition (%) ([2]; concentration of drug 0.2 mM) | Inhibition (%) [2, 5] [%] | Inhibition (%) ([2]; concentration of drug 2 μM) | Inhibition (%) ([2]; concentration of drug 20 μM) | also measured
CCCCCCCCCCCCCC(=O)N[C@H](CC(=O)[O-])C[N+](C)(C)C [--CO(CH2)12 CH3, (R)-3-myristoylamino-4-trimethylammoniobutyrate] | 7.9 | – | – | – | – | –
C[N+](C)(C)C[C@@H](N)CC(=O)O.Cl.[Cl-] [--H (D-), [(S)-2-ammonio-3-carboxypropyl]trimethylammonium dichloride] | – | 11 | 36 | – | – | –
CCCC(=O)N[C@H](CC(=O)[O-])C[N+](C)(C)C [--CO(CH2)2 CH3, [(R)-3-carboxy-2-n-butyrylaminopropyl]trimethylammonium picrate] | – | – | 50 | – | – | –
CC(=O)N[C@H](CC(=O)[O-])C[N+](C)(C)C [FA-5859] | – | – | – | – | – | Solubility ([3]; in ethanol, methanol): Soluble; Solubility [3, 6]: Insoluble; Solubility [3, 7]: Hardly soluble; Solubility ([3]; in water): Readily soluble; Stability [4]: Stable
C[N+](C)(C)C[C@@H](CC(=O)[O-])NC(=O)OCc1ccccc1 [--COOCH2 C6 H5, (R)-3-benzyloxycarbonylamino-4-trimethylammoniobutyrate] | 19.7 | 85 | 98 | – | – | –
C[N+](C)(C)C[C@@H](CC(=O)[O-])NC=O [--COH, [(R)-3-carboxy-2-formylaminopropyl]trimethylammonium picrate] | 75.7 | 53 | 84 | – | – | –
CCCOC(=O)C[C@@H](N)C[N+](C)(C)C [--O(CH2)2 CH3, [(R)-2-ammonio-3-carbopropoxypropyl]trimethylammonium dipicrate] | – | – | – | 41 | 69 | –
C[N+](C)(C)C[C@H](N)CC(N)=O [--NH2, [(R)-2-ammonio-3-carbamoylpropyl]trimethylammonium dipicrate] | – | 67 | – | 10 | 27 | –
CCC(=O)N[C@H](CC(=O)O)C[N+](C)(C)C.[Cl-] [--COCH2 CH3, [(R)-3-carboxy-2-propionylaminopropyl]trimethylammonium chloride] | – | – | 44 | – | – | –
C[N+](C)(C)C[C@@H](CC(=O)O)NC(N)=O.[Cl-] [--CONH2, [(R)-3-carboxy-2-carbamoylaminopropyl]trimethylammonium chloride] | 63.2 | 34 | 72 | – | – | –
CCCCCCCCCCCCCCCC(=O)N[C@H](CC(=O)[O-])C[N+](C)(C)C [--CO(CH2)14 CH3, (R)-3-palmitoylamino-4-trimethylammoniobutyrate] | 6.7 | – | – | 100 | 100 | –
COC(=O)C[C@@H](N)C[N+](C)(C)C [--OCH3, [(R)-2-ammonio-3-carbomethoxypropyl]trimethylammonium dipicrate] | – | – | – | 26 | 73 | –
CC(=O)N[C@H](CC(=O)[O-])C[N+](C)(C)C [FA-5859.hydrochloride] | – | – | – | – | – | Solubility ([3]; in ethanol, methanol): Soluble; Solubility [3, 6]: Insoluble; Solubility [3, 7]: Hardly soluble; Solubility ([3]; in water): Readily soluble; Stability [4]: stable
CN[C@H](CC(=O)[O-])C[N+](C)(C)C [--CH3, [(R)-2-methylammonio-3-carboxypropyl]trimethylammonium . dichloride] | 19.9 | 89 | 100 | – | – | –
CCOC(=O)C[C@@H](N)C[N+](C)(C)C [--OCH2 CH3, [(R)-2-ammonio-3-carboethoxypropyl]trimethylammonium monochloride monopicrate] | 5.9 | – | – | 37 | 85 | –
CC(=O)N[C@@H](CC(=O)O)C[N+](C)(C)C.[Cl-] [--COCH3 (D-), [(S)-2-acetylamino-3-carboxypropyl]trimethylammonium chloride] | – | 2 | 28 | – | – | –
